From US5994340A, “Azetidinone derivatives as β-lactamase inhibitors” (SynPhar Laboratories, Inc., priority 1997, dated 1999)
Counter-ions that a name gives are not always drawn.

Key:
[1] = target: cephalosporinase from P. aeruginosa (Pseudomonas aeruginosa, UniProt P24735); test: β-Lactamase inhibitory activity, spectrophotometric rate assay at 490 nm with nitrocefin as substrate; assay type: biochemical
Method: The inhibitory activities of present compounds (β-lactamase inhibitors) against cephalosporinase from P. aeruginosa was measured by spectrophotometric rate assay using 490 nm and using nitrocefin as a substrate (J. Antimicrob. Chemother., vol. 28, pp 775-776, 1991).

β-lactamase = settings: suggested by several publications; cited from earlier work
E. cloacae P 99 = test: microbe, parasite or virus in culture; assay type: cell-based; settings: Enterobacter cloacae, P99, 18 h, read-out: MIC of ceftazidime alone
Method: (§1) After incubation in Mueller-Hinton Broth (Difco) at 37° C. for 18 h, the bacterial suspension was diluted and about 10^5 CFU/ml was applied to the drug-containing Mueller-Hinton Broth in each well of 96 well plate. The MICs were recorded after 18 h of incubation at 37° C. on the lowest combinations of drug that inhibited visible growth of bacteria.

[2] = tested on: P. aeruginosa 46220 DR-2-1; test: microbe, parasite or virus in culture; assay type: cell-based; settings: Pseudomonas aeruginosa, 46220DR21, 18 h, read-out: MIC of ceftazidime alone
Method: as §1, with “[…]. After” for “After”

[3] = tested on: P. aeruginosa PAO 303 carb-4; test: microbe, parasite or virus in culture; assay type: cell-based; settings: Pseudomonas aeruginosa, PAO303CARB4, 18 h, read-out: MIC of ceftazidime alone
Method: as §1, with “[…]. After” for “After”

E. cloacae MNH-2 = test: MIC of ceftazidime, microbroth dilution; assay type: cell-based; settings: Enterobacter cloacae, MNH2, 18 h, read-out: MIC of ceftazidime alone
Method: as §1

E. cloacae 40054 = test: MIC of ceftazidime, microbroth dilution; assay type: cell-based; settings: Enterobacter cloacae, 40054, 18 h, read-out: MIC of ceftazidime alone
Method: as §1

M. morganii 36010 = test: MIC of ceftazidime, microbroth dilution; assay type: cell-based; settings: Morganella morganii, ceftazidime alone, 18 h
Method: as §1, with “The MICs of the antibiotics (e.g., ceftazidime) alone, the MICs of ceftazidime in combination with reference compounds particularly […] (Ref. compd. I) and the MICs of the β-lactamase inhibitors (10 μg/ml) of the present invention in combination with ceftazidime were determined with the same β-lactamase producing bacteria. After” for “After”

P. aeruginosa CT-144 = test: MIC of ceftazidime, microbroth dilution; assay type: cell-based; settings: Pseudomonas aeruginosa, CT144; ceftazidime alone, 18 h
Method: as §1, with “The MICs of the antibiotics (e.g., ceftazidime) alone, the MICs of ceftazidime in combination with reference compounds particularly […] (Ref. compd. I) and the MICs of the β-lactamase inhibitors (10 μg/ml) of the present invention in combination with ceftazidime were determined with the same β-lactamase producing bacteria. After” for “After”

P. aeruginosa M2297 = test: MIC of ceftazidime, microbroth dilution; assay type: cell-based; settings: Pseudomonas aeruginosa, ceftazidime alone, 18 h
Method: as §1, with “The MICs of the antibiotics (e.g., ceftazidime) alone, the MICs of ceftazidime in combination with reference compounds particularly […] (Ref. compd. I) and the MICs of the β-lactamase inhibitors (10 μg/ml) of the present invention in combination with ceftazidime were determined with the same β-lactamase producing bacteria. After” for “After”

[4] = tested on: P. aeruginosa sp 2439 Wt.; test: MIC of ceftazidime, microbroth dilution; assay type: cell-based; settings: Pseudomonas aeruginosa, SP2439WT.; ceftazidime alone, 18 h
Method: as §1, with “The MICs of the antibiotics (e.g., ceftazidime) alone, the MICs of ceftazidime in combination with reference compounds particularly […] (Ref. compd. I) and the MICs of the β-lactamase inhibitors (10 μg/ml) of the present invention in combination with ceftazidime were determined with the same β-lactamase producing bacteria. After” for “After”

P. aeruginosa CT-137 = test: MIC of ceftazidime, microbroth dilution; assay type: cell-based; settings: Pseudomonas aeruginosa, CT137; ceftazidime alone, 18 h
Method: as §1, with “The MICs of the antibiotics (e.g., ceftazidime) alone, the MICs of ceftazidime in combination with reference compounds particularly […] (Ref. compd. I) and the MICs of the β-lactamase inhibitors (10 μg/ml) of the present invention in combination with ceftazidime were determined with the same β-lactamase producing bacteria. After” for “After”

P. aeruginosa CT-122 = test: MIC of ceftazidime, microbroth dilution; assay type: cell-based; settings: Pseudomonas aeruginosa, CT122; ceftazidime alone, 18 h
Method: as §1, with “The MICs of the antibiotics (e.g., ceftazidime) alone, the MICs of ceftazidime in combination with reference compounds particularly […] (Ref. compd. I) and the MICs of the β-lactamase inhibitors (10 μg/ml) of the present invention in combination with ceftazidime were determined with the same β-lactamase producing bacteria. After” for “After”

P. aeruginosa AU-5 = test: MIC of ceftazidime, microbroth dilution; assay type: cell-based; settings: Pseudomonas aeruginosa, AU5; ceftazidime alone, 18 h
Method: as §1, with “The MICs of the antibiotics (e.g., ceftazidime) alone, the MICs of ceftazidime in combination with reference compounds particularly […] (Ref. compd. I) and the MICs of the β-lactamase inhibitors (10 μg/ml) of the present invention in combination with ceftazidime were determined with the same β-lactamase producing bacteria. After” for “After”

P. aeruginosa 46017 = test: MIC of ceftazidime, microbroth dilution; assay type: cell-based; settings: Pseudomonas aeruginosa, ceftazidime alone, 18 h
Method: as §1, with “The MICs of the antibiotics (e.g., ceftazidime) alone, the MICs of ceftazidime in combination with reference compounds particularly […] (Ref. compd. I) and the MICs of the β-lactamase inhibitors (10 μg/ml) of the present invention in combination with ceftazidime were determined with the same β-lactamase producing bacteria. After” for “After”

P. aeruginosa 46220 DR-2 = test: MIC of ceftazidime, microbroth dilution; assay type: cell-based; settings: Pseudomonas aeruginosa, 46220DR2; ceftazidime alone, 18 h
Method: as §1, with “The MICs of the antibiotics (e.g., ceftazidime) alone, the MICs of ceftazidime in combination with reference compounds particularly […] (Ref. compd. I) and the MICs of the β-lactamase inhibitors (10 μg/ml) of the present invention in combination with ceftazidime were determined with the same β-lactamase producing bacteria. After” for “After”

P. aeruginosa AU-10 = test: MIC of ceftazidime, microbroth dilution; assay type: cell-based; settings: Pseudomonas aeruginosa, AU10; ceftazidime alone, 18 h
Method: as §1, with “The MICs of the antibiotics (e.g., ceftazidime) alone, the MICs of ceftazidime in combination with reference compounds particularly […] (Ref. compd. I) and the MICs of the β-lactamase inhibitors (10 μg/ml) of the present invention in combination with ceftazidime were determined with the same β-lactamase producing bacteria. After” for “After”

P. aeruginosa 46012 = test: MIC of ceftazidime, microbroth dilution; assay type: cell-based; settings: Pseudomonas aeruginosa, 46012, 18 h, read-out: MIC of ceftazidime alone
Method: as §1, with “[…]. After” for “After”

M. morganii 36030 = test: MIC of ceftazidime, microbroth dilution; assay type: cell-based; settings: Morganella morganii, 36030, 18 h, read-out: MIC of ceftazidime alone
Method: as §1, with “[…]. After” for “After”

P. aeruginosa L46004 = test: MIC of ceftazidime, microbroth dilution; assay type: cell-based; settings: Pseudomonas aeruginosa, L46004, 18 h, read-out: MIC of ceftazidime alone
Method: as §1, with “[…]. After” for “After”

M. morganii 36014 = test: MIC of ceftazidime, microbroth dilution; assay type: cell-based; settings: Morganella morganii, 36014, 18 h, read-out: MIC of ceftazidime alone
Method: as §1, with “[…]. After” for “After”

E. aerogenes S-95 = test: MIC of ceftazidime, microbroth dilution; assay type: cell-based; settings: Klebsiella aerogenes, S95, 18 h, read-out: MIC of ceftazidime alone
Method: as §1, with “[…]. After” for “After”

C. freundii 44032 = test: MIC of ceftazidime, microbroth dilution; assay type: cell-based; settings: Citrobacter freundii, 44032, 18 h, read-out: MIC of ceftazidime alone
Method: as §1, with “[…]. After” for “After”

P. aeruginosa AU-1 = test: MIC of ceftazidime, microbroth dilution; assay type: cell-based; settings: Pseudomonas aeruginosa, AU1, 18 h, read-out: MIC of ceftazidime alone
Method: as §1, with “[…]. After” for “After”

P. aeruginosa M 1405 = test: MIC of ceftazidime, microbroth dilution; assay type: cell-based; settings: Pseudomonas aeruginosa, M1405, 18 h, read-out: MIC of ceftazidime alone
Method: as §1, with “[…]. After” for “After”

E. aerogenes 41006 = test: MIC of ceftazidime, microbroth dilution; assay type: cell-based; settings: Klebsiella aerogenes, 41006, 18 h, read-out: MIC of ceftazidime alone
Method: as §1, with “[…]. After” for “After”

P. aeruginosa AU-8 = test: MIC of ceftazidime, microbroth dilution; assay type: cell-based; settings: Pseudomonas aeruginosa, AU8, 18 h, read-out: MIC of ceftazidime alone
Method: as §1, with “[…]. After” for “After”

C. freundii CT-76 = test: MIC of ceftazidime, microbroth dilution; assay type: cell-based; settings: Citrobacter freundii, CT76, 18 h, read-out: MIC of ceftazidime alone
Method: as §1, with “[…]. After” for “After”

Sequence of cephalosporinase from P. aeruginosa (P24735 27-397): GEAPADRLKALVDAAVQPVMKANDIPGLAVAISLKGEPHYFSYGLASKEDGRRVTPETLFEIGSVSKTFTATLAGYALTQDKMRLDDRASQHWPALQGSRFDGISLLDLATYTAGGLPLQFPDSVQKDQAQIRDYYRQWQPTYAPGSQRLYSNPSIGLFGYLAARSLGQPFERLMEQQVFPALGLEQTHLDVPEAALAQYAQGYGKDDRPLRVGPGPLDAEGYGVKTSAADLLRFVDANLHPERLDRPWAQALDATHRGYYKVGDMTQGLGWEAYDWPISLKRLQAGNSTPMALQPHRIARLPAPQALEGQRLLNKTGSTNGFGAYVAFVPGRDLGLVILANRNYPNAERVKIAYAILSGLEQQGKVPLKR

C[C@H]1[C@H](NC(=O)/C(=N/OCCN)c2cccs2)C(=O)N1S(=O)(=O)O [Compound 1]
IC50 [1]: 20 nM

C[C@H]1[C@H](NC(=O)/C(=N/OCCCN)c2cccs2)C(=O)N1S(=O)(=O)O [Compound 2]
IC50 [1]: 20 nM

C[C@H]1[C@H](NC(=O)/C(=N/OC(CN)CN)c2cccs2)C(=O)N1S(=O)(=O)O [Compound 3, (3S)-trans-3-[(E)-2-(2-Thienyl)-2-{1,3-diamino-prop-2-oxyimino}acetamido]-4-methyl-2-oxoazetidine-1-sulfonic acid, triflate salt]
IC50 [1]: 400 nM

C[C@H]1[C@H](NC(=O)/C(=N/OCC(N)CN)c2cccs2)C(=O)N1S(=O)(=O)O (some centres unmarked) [Compound 4]
IC50 [1]: 65 nM

C[C@H]1[C@H](NC(=O)/C(=N/OC[C@@H](N)CCN)c2cccs2)C(=O)N1S(=O)(=O)O [Compound 5]
IC50 [1]: 100 nM

C[C@H]1[C@H](NC(=O)/C(=N/OC[C@H](N)CCN)c2cccs2)C(=O)N1S(=O)(=O)O [Compound 6]
IC50 [1]: 100 nM

C[C@H]1[C@H](NC(=O)/C(=N/OCCNCCN)c2cccs2)C(=O)N1S(=O)(=O)O [Compound 7]
IC50 [1]: 80 nM

C[C@H]1[C@H](NC(=O)/C(=N/OC(CN)CO)c2cccs2)C(=O)N1S(=O)(=O)O (some centres unmarked) [Compound 8]
IC50 [1]: 300 nM

C[C@H]1[C@H](NC(=O)/C(=N/OCC(N)CO)c2cccs2)C(=O)N1S(=O)(=O)O (stereo partly drawn) [Compound 9, (3S)-trans-3-[(E)-2-(2-Thienyl)-2-{1-hydroxy-2-amino-prop-3-oxyimino}acetamido]-4-methyl-2-oxoazetidine-1-sulfonic acid, inner salt]
IC50 [1]: 80 nM

CC(N)CO/N=C(/C(=O)N[C@@H]1C(=O)N(S(=O)(=O)O)[C@H]1C)c1cccs1 (stereo partly drawn) [Compound 10, (3S)-trans-3-[(E)-2-(2-Thienyl-2-{(2-amino)-prop-1-oxyimino}acetamido]-4-methyl-2-oxoazetidine-1-sulfonic acid, inner salt]
IC50 [1]: 80 nM

CC(CN)O/N=C(/C(=O)N[C@@H]1C(=O)N(S(=O)(=O)O)[C@H]1C)c1cccs1 (some centres unmarked) [Compound 11]
IC50 [1]: 200 nM

C[C@H]1[C@H](NC(=O)/C(=N/OC(CN)CNC(=N)N)c2cccs2)C(=O)N1S(=O)(=O)O (some centres unmarked) [Compound 12]
IC50 [1]: 1090 nM

C[C@H]1[C@H](NC(=O)/C(=N\OC(C)(C)C(=O)O)c2csc(N)n2)C(=O)N1S(=O)(=O)O [Reference Compound I, Aztreonam]
IC50 [1]: 130 nM
β-lactamase inhibitory properties (β-lactamase): possesses β-lactamase inhibitory properties

C[C@H]1[C@H](NC(=O)/C(=N/OCCN)c2csc(N)n2)C(=O)N1S(=O)(=O)O [Reference Compound II]
IC50 [1]: 800 nM

CC(C)(O/N=C(\C(=O)N[C@@H]1C(=O)N2C(C(=O)[O-])=C(C[n+]3ccccc3)CS[C@H]12)c1csc(N)n1)C(=O)O [ceftazidime]
MIC (E. cloacae P 99): > 32 µg/mL
MIC [2]: > 32 µg/mL
MIC [3]: 32 µg/mL
MIC (E. cloacae MNH-2): > 32 µg/mL
MIC (E. cloacae 40054): > 32 µg/mL
MIC (M. morganii 36010): > 32 µg/mL
MIC (P. aeruginosa CT-144): 32 µg/mL
MIC (P. aeruginosa M2297): > 32 µg/mL
MIC [4]: > 32 µg/mL
MIC (P. aeruginosa CT-137): 8 µg/mL
MIC (P. aeruginosa CT-122): 16 µg/mL
MIC (P. aeruginosa AU-5): > 32 µg/mL
MIC (P. aeruginosa 46017): > 32 µg/mL
MIC (P. aeruginosa 46220 DR-2): 16 µg/mL
MIC (P. aeruginosa AU-10): > 32 µg/mL
MIC (P. aeruginosa 46012): > 32 µg/mL
MIC (M. morganii 36030): > 32 µg/mL
MIC (P. aeruginosa L46004): > 32 µg/mL
MIC (M. morganii 36014): > 32 µg/mL
MIC (E. aerogenes S-95): > 32 µg/mL
MIC (C. freundii 44032): > 32 µg/mL
MIC (P. aeruginosa AU-1): > 32 µg/mL
MIC (P. aeruginosa M 1405): > 32 µg/mL
MIC (E. aerogenes 41006): > 32 µg/mL
MIC (P. aeruginosa AU-8): > 32 µg/mL
MIC (C. freundii CT-76): > 32 µg/mL
